Assay results from the NIST ThermoML archive (doi:10.1021/je201009c).
± gives the expanded uncertainty stated by the source.

Assay: xn = mol fraction of the nth substance listed
Conditions: for surface tension liquid-gas: Capillary rise; for viscosity / mass density: 100.8 kPa, Liquid; for viscosity: Falling or rolling sphere viscometry; for mass density: Vibrating tube method

OCc1ccccc1 [benzenemethanol] + CCO
Conditions	mass density [kg/m3]	surface tension liquid-gas [mN/m]	viscosity [mPa·s]
293.15 K, x2 = 0	1045.44 ± 0.19	39.2 ± 0.4	6.287 ± 0.054
293.15 K, x2 = 0.05	1038.93 ± 0.18	38.7 ± 0.4	5.903 ± 0.051
293.15 K, x2 = 0.1	1032.01 ± 0.18	38.1 ± 0.4	5.548 ± 0.048
293.15 K, x2 = 0.1504	1024.72 ± 0.18	37.5 ± 0.4	5.197 ± 0.044
293.15 K, x2 = 0.1999	1017.09 ± 0.18	36.8 ± 0.4	4.871 ± 0.042
293.15 K, x2 = 0.2502	1008.95 ± 0.18	36.1 ± 0.4	4.55 ± 0.039
293.15 K, x2 = 0.3003	1000.31 ± 0.18	35.3 ± 0.4	4.236 ± 0.037
293.15 K, x2 = 0.3499	991.24 ± 0.18	34.5 ± 0.4	3.94 ± 0.035
293.15 K, x2 = 0.3998	981.52 ± 0.19	33.6 ± 0.4	3.655 ± 0.033
293.15 K, x2 = 0.45	971.12 ± 0.2	32.7 ± 0.4	3.377 ± 0.031
293.15 K, x2 = 0.5001	960.01 ± 0.21	31.8 ± 0.4	3.107 ± 0.029
293.15 K, x2 = 0.55	948.23 ± 0.21	30.9 ± 0.4	2.857 ± 0.027
293.15 K, x2 = 0.5999	935.57 ± 0.2	29.9 ± 0.4	2.623 ± 0.026
293.15 K, x2 = 0.65	921.93 ± 0.2	28.9 ± 0.4	2.392 ± 0.024
293.15 K, x2 = 0.6997	907.34 ± 0.2	28 ± 0.4	2.169 ± 0.023
293.15 K, x2 = 0.75	891.49 ± 0.2	27.1 ± 0.4	1.971 ± 0.022
293.15 K, x2 = 0.7999	874.42 ± 0.19	26.1 ± 0.4	1.782 ± 0.021
293.15 K, x2 = 0.8496	855.94 ± 0.19	25.2 ± 0.4	1.611 ± 0.02
293.15 K, x2 = 0.8998	835.44 ± 0.19	24.3 ± 0.4	1.454 ± 0.019
293.15 K, x2 = 0.95	813.26 ± 0.19	23.3 ± 0.4	1.305 ± 0.019
303.15 K, x2 = 0	1037.45 ± 0.18	38.1 ± 0.4	4.579 ± 0.041
303.15 K, x2 = 0.05	1030.91 ± 0.18	37.5 ± 0.4	4.276 ± 0.038
303.15 K, x2 = 0.1	1024.02 ± 0.18	36.9 ± 0.4	4.006 ± 0.036
303.15 K, x2 = 0.1504	1016.76 ± 0.18	36.2 ± 0.4	3.761 ± 0.034
303.15 K, x2 = 0.1999	1009.06 ± 0.18	35.5 ± 0.4	3.529 ± 0.033
303.15 K, x2 = 0.2502	1000.9 ± 0.18	34.8 ± 0.4	3.321 ± 0.031
303.15 K, x2 = 0.3003	992.29 ± 0.18	34.1 ± 0.4	3.117 ± 0.03
303.15 K, x2 = 0.3499	983.16 ± 0.18	33.3 ± 0.4	2.924 ± 0.028
303.15 K, x2 = 0.3998	973.34 ± 0.19	32.5 ± 0.4	2.735 ± 0.027
303.15 K, x2 = 0.45	962.91 ± 0.2	31.6 ± 0.4	2.542 ± 0.026
303.15 K, x2 = 0.5001	951.76 ± 0.21	30.7 ± 0.4	2.368 ± 0.025
303.15 K, x2 = 0.55	939.95 ± 0.21	29.8 ± 0.4	2.206 ± 0.023
303.15 K, x2 = 0.5999	927.33 ± 0.2	28.8 ± 0.4	2.03 ± 0.022
303.15 K, x2 = 0.65	913.64 ± 0.2	27.8 ± 0.4	1.873 ± 0.022
303.15 K, x2 = 0.6997	898.99 ± 0.2	26.9 ± 0.4	1.716 ± 0.021
303.15 K, x2 = 0.75	883.14 ± 0.2	26 ± 0.4	1.568 ± 0.02
303.15 K, x2 = 0.7999	865.99 ± 0.2	25.1 ± 0.4	1.423 ± 0.019
303.15 K, x2 = 0.8496	847.51 ± 0.19	24.2 ± 0.4	1.292 ± 0.019
303.15 K, x2 = 0.8998	827.13 ± 0.19	23.3 ± 0.4	1.173 ± 0.018
303.15 K, x2 = 0.95	805.04 ± 0.19	22.3 ± 0.4	1.06 ± 0.018
313.15 K, x2 = 0	1029.61 ± 0.18	37.2 ± 0.4	3.335 ± 0.031
313.15 K, x2 = 0.05	1023.04 ± 0.18	36.6 ± 0.4	3.171 ± 0.03
313.15 K, x2 = 0.1	1016.21 ± 0.18	35.9 ± 0.4	3.002 ± 0.029
313.15 K, x2 = 0.1504	1008.86 ± 0.18	35.3 ± 0.4	2.841 ± 0.028
313.15 K, x2 = 0.1999	1001.16 ± 0.18	34.6 ± 0.4	2.688 ± 0.027
313.15 K, x2 = 0.2502	992.96 ± 0.18	33.9 ± 0.4	2.539 ± 0.026
313.15 K, x2 = 0.3003	984.28 ± 0.18	33.2 ± 0.4	2.389 ± 0.025
313.15 K, x2 = 0.3499	975.05 ± 0.19	32.4 ± 0.4	2.244 ± 0.024
313.15 K, x2 = 0.3998	965.24 ± 0.19	31.6 ± 0.4	2.101 ± 0.023
313.15 K, x2 = 0.45	954.84 ± 0.2	30.7 ± 0.4	1.955 ± 0.022
313.15 K, x2 = 0.5001	943.67 ± 0.21	29.8 ± 0.4	1.819 ± 0.021
313.15 K, x2 = 0.55	931.78 ± 0.21	28.9 ± 0.4	1.684 ± 0.021
313.15 K, x2 = 0.5999	919.04 ± 0.21	27.9 ± 0.4	1.561 ± 0.02
313.15 K, x2 = 0.65	905.41 ± 0.2	26.9 ± 0.4	1.441 ± 0.019
313.15 K, x2 = 0.6997	890.69 ± 0.2	26 ± 0.4	1.332 ± 0.019
313.15 K, x2 = 0.75	874.75 ± 0.2	25.1 ± 0.4	1.236 ± 0.019
313.15 K, x2 = 0.7999	857.51 ± 0.2	24.2 ± 0.4	1.146 ± 0.018
313.15 K, x2 = 0.8496	838.83 ± 0.2	23.3 ± 0.4	1.048 ± 0.018
313.15 K, x2 = 0.8998	818.48 ± 0.19	22.4 ± 0.4	0.972 ± 0.018
313.15 K, x2 = 0.95	796.32 ± 0.19	21.5 ± 0.4	0.899 ± 0.017
323.15 K, x2 = 0	1021.5 ± 0.18	36.3 ± 0.4	2.545 ± 0.026
323.15 K, x2 = 0.05	1014.86 ± 0.18	35.6 ± 0.4	2.439 ± 0.025
323.15 K, x2 = 0.1	1007.98 ± 0.18	34.9 ± 0.4	2.337 ± 0.025
323.15 K, x2 = 0.1504	1000.57 ± 0.18	34.2 ± 0.4	2.238 ± 0.024
323.15 K, x2 = 0.1999	992.89 ± 0.18	33.5 ± 0.4	2.142 ± 0.023
323.15 K, x2 = 0.2502	984.67 ± 0.18	32.8 ± 0.4	2.041 ± 0.023
323.15 K, x2 = 0.3003	975.99 ± 0.18	32.1 ± 0.4	1.941 ± 0.022
323.15 K, x2 = 0.3499	966.71 ± 0.19	31.3 ± 0.4	1.844 ± 0.021
323.15 K, x2 = 0.3998	956.84 ± 0.19	30.5 ± 0.4	1.746 ± 0.021
323.15 K, x2 = 0.45	946.37 ± 0.2	29.6 ± 0.4	1.649 ± 0.02
323.15 K, x2 = 0.5001	935.23 ± 0.21	28.7 ± 0.4	1.556 ± 0.02
323.15 K, x2 = 0.55	923.28 ± 0.21	27.8 ± 0.4	1.462 ± 0.019
323.15 K, x2 = 0.5999	910.48 ± 0.21	26.8 ± 0.4	1.368 ± 0.019
323.15 K, x2 = 0.65	896.61 ± 0.21	25.8 ± 0.4	1.279 ± 0.019
323.15 K, x2 = 0.6997	881.89 ± 0.2	24.8 ± 0.4	1.189 ± 0.018
323.15 K, x2 = 0.75	865.88 ± 0.2	23.9 ± 0.4	1.105 ± 0.018
323.15 K, x2 = 0.7999	848.64 ± 0.2	23 ± 0.4	1.022 ± 0.018
323.15 K, x2 = 0.8496	830.07 ± 0.2	22.1 ± 0.4	0.937 ± 0.017
323.15 K, x2 = 0.8998	809.62 ± 0.2	21.2 ± 0.4	0.854 ± 0.017
323.15 K, x2 = 0.95	787.41 ± 0.2	20.3 ± 0.4	0.774 ± 0.017
